According to PMC5643462, “Encrypted Antimicrobial Peptides from Plant Proteins” (Scientific Reports, 2017):
≈ marks a conversion by molar mass, not a printed value. No end group written: not given here.

Tests used:
[1] = test system: Escherichia coli; assay: Microbicidal activity (minimal killing concentration), plating on agar; format: cell-based, Escherichia coli ATCC 25922; conditions: 10 µL of MIC and raising concentrations up to 256 µM plated on Mueller-Hinton agar; 37 °C, 24 h; no growth; mean ± SD, 3 biological replicates
Description: (§1) The microbicidal activity of the IAPS was also evaluated. […] YPD agar and Mueller-Hinton agar were used for fungi/yeasts and bacteria, respectively. Meanwhile, susceptibility microplates were incubated again to evaluate if there would be any growing after a longer period. For both approaches, the minimal killing concentration (MKC) was defined as the concentration that no growth was observed after incubation. Three biological replicates were performed for each test.
(§2) Supplementary Material 07, Table S5
(§3) Table S5. Microorganisms and growth conditions.
(§4) Microorganisms Incubation Incubation Starting cell Growth Medium

[2] = test system: Pseudomonas syringae pv. tabaci; assay: as above; format: cell-based; conditions: 10 µL of MIC and raising concentrations up to 256 µM plated on Mueller-Hinton agar; 28 °C, 24 h; no growth; mean ± SD, 3 biological replicates
Description: as §1, §2, §3, §4
(§5) Temperature (°C) Time (h) concentration
(§6) Erwinia carotovora 28 24 5.0 x 10 5 Mueller -Hinton
(§7) Xanthomonas campestris pv. citri 28 24 5.0 x 10 5 Mueller -Hinton
(§8) Pseudomonas syringae pv. tabaci 28 24 5.0 x 10 5 Mueller -Hinton

[3] = test system: Erwinia carotovora; assay: as above; format: cell-based; conditions: 10 µL of MIC and raising concentrations up to 256 µM plated on Mueller-Hinton agar; 28 °C, 24 h; no growth; mean ± SD, 3 biological replicates
Description: as §1, §2, §3, §4, §5, §6, §7, §8

[4] = test system: Xanthomonas campestris; assay: as above; format: cell-based, Xanthomonas campestris pv. citri; conditions: 10 µL of MIC and raising concentrations up to 256 µM plated on Mueller-Hinton agar; 28 °C, 24 h; no growth; mean ± SD, 3 biological replicates
Description: as §1, §2, §3, §4, §5, §6, §7, §8

[5] = test system: Staphylococcus aureus; assay: as above; format: cell-based, Staphylococcus aureus ATCC 25923; conditions: 10 µL of MIC and raising concentrations up to 256 µM plated on Mueller-Hinton agar; 37 °C, 24 h; no growth; mean ± SD, 3 biological replicates
Description: as §1, §2, §3, §4, §5, §6, §7, §8

[6] = test system: Bacillus subtilis; assay: as above; format: cell-based, Bacillus subtilis ATCC 23857; conditions: 10 µL of MIC and raising concentrations up to 256 µM plated on Mueller-Hinton agar; 37 °C, 24 h; no growth; mean ± SD, 3 biological replicates
Description: as §1, §2, §3, §4

[7] = test system: Pseudomonas syringae pv. tabaci; assay: microbe, parasite or virus in culture; conditions: 24 h
Description: (§9) The susceptibility test of microorganisms was performed to evaluate the inhibitory activity of the IAPs. Protocols M7-A10[50], M27-A3[51] and M38-A2[52] from Clinical & Laboratory Standards Institute (CLSI) were used for bacteria, yeasts and filamentous fungi tests, respectively. Briefly, different concentration of IAPs (256-0.5 µM) were tested against 16 microorganisms, in a final volume of 100 µL. Media conditions, final cell concentration and incubation conditions are presented in Supplementary Material 07, Table S5. Three biological repetitions, with 2 technical replicates each, were performed for each test, on polystyrene flat-bottom 96 wells microplates. The minimum inhibitory concentration (MIC) was defined as the concentration that no cells/hyphae were detected when visualized by optical microscopy.
as §2, §3

[8] = test system: Xanthomonas campestris; assay: microbe, parasite or virus in culture; conditions: 24 h
Description: as §9, §2, §3

[9] = test system: Escherichia coli; assay: microbe, parasite or virus in culture; conditions: for Minimum inhibitory concentration, Escherichia coli: ATCC 25922, Mueller-Hinton, 37 °C, 24 h, start 5.0 x 10^5 cells, 256-0.5 µM, mean ± SD of 3 biological repetitions (SD 0 not displayed), N/A = no antimicrobial activity observed
Description: as §9, §2, §3

[10] = test system: Bacillus subtilis; assay: microbe, parasite or virus in culture; conditions: for Minimum inhibitory concentration, Bacillus subtilis: ATCC 23857, Mueller-Hinton, 37 °C, 24 h, start 5.0 x 10^5 cells, 256-0.5 µM, mean ± SD of 3 biological repetitions (SD 0 not displayed), N/A = no antimicrobial activity observed
Description: as §9, §2, §3

[11] = test system: Erwinia carotovora; assay: microbe, parasite or virus in culture; conditions: 24 h
Description: as §9, §2, §3

[12] = test system: Staphylococcus aureus; assay: microbe, parasite or virus in culture; conditions: for Minimum inhibitory concentration, Staphylococcus aureus: ATCC 25923, Mueller-Hinton, 37 °C, 24 h, start 5.0 x 10^5 cells, 256-0.5 µM, mean ± SD of 3 biological repetitions (SD 0 not displayed), N/A = no antimicrobial activity observed
Description: as §9, §2, §3

[13] = test system: Candida albicans; assay: microbe, parasite or virus in culture
Description: as §9, §2, §3

[14] = test system: Cryptococcus neoformans; assay: microbe, parasite or virus in culture
Description: as §9, §2, §3

[15] = test system: Trichoderma asperellum; assay: microbe, parasite or virus in culture; conditions: Trichoderma asperellum, 48 h, pH 7, read-out: Minimum inhibitory concentration, Trichoderma asperellum
Description: as §9, §2, §3

[16] = test system: Fusarium oxysporum; assay: microbe, parasite or virus in culture; conditions: Fusarium oxysporum, 48 h, pH 7, read-out: Minimum inhibitory concentration, Fusarium oxysporum
Description: as §9, §2, §3

[17] = test system: Ramularia areola; assay: microbe, parasite or virus in culture; conditions: Ramulariopsis gossypii, 120 h, pH 7, read-out: Minimum inhibitory concentration, Ramularia areola
Description: as §9, §2, §3

[18] = test system: Pseudomonas aeruginosa; assay: Microbicidal activity (minimal killing concentration), plating on agar; format: cell-based, Pseudomonas aeruginosa ATCC 27853; conditions: 10 µL of MIC and raising concentrations up to 256 µM plated on Mueller-Hinton agar; 37 °C, 24 h; no growth; mean ± SD, 3 biological replicates
Description: as §1, §2, §3, §4

[19] = test system: Bacillus cereus; assay: as above; format: cell-based, Bacillus cereus ATCC 14579; conditions: 10 µL of MIC and raising concentrations up to 256 µM plated on Mueller-Hinton agar; 37 °C, 24 h; no growth; mean ± SD, 3 biological replicates
Description: as §1, §2, §3, §4

[20] = test system: Bacillus cereus; assay: microbe, parasite or virus in culture
Description: as §9, §2, §3

[21] = test system: Pseudomonas aeruginosa; assay: microbe, parasite or virus in culture
Description: as §9, §2, §3

[22] = test system: human red blood cells; assay: Cytotoxicity: hemolysis of human red blood cells; format: cell-based
Description: The cytotoxicity of the selected IAPS was performed using human red blood cells in strict accordance with relevant guidelines and regulations (Ethical committee – UnB # 1.939.989). Different concentrations of IAPs (128 µM–0.5 µM) were incubated with a final concentration of 2.5 × 10^5 red blood cells.mL^−1. Briefly, 100 µL of red blood cells was incubated with 100 µL of different concentrations of each IAP, prepared in PBS, for 30 minutes at 37 °C, with constant shaking at 120 rpm. PBS and Triton X-100 0.1% (v/v) were used as negative and positive controls, respectively. After incubation, the solution was centrifuged at 900 × g for five minutes followed by transferring 50 µL of the supernatant to flat-bottom polystyrene 96-well micro plates containing 50 µL of PBS. Microplate reading was performed at a BioTek Multireader, using a wavelength of 540 nm. All tests were performed in 3 biological replicates, composed of 3 biological repetitions each. The obtained data was subtracted by the negative control and relative to the positive control, defined as 100% lysis.

[23] = Mueller-Hinton, 28 °C, start 5.0 x 10^5 cells, 256-0.5 µM, mean ± SD of 3 biological repetitions (SD 0 not displayed), N/A = no antimicrobial activity observed

CC1(C)S[C@@H]2[C@H](NC(=O)[C@H](N)c3ccccc3)C(=O)N2[C@H]1C(=O)O [Ampicilin]
Minimum microbicidal concentration, Escherichia coli [1]: 10.77 ± 0.0 µM
Minimum microbicidal concentration, Pseudomonas syringae pv. tabaci [2]: 10.77 ± 0.0 µM
Minimum microbicidal concentration, Erwinia carotovora [3]: 2.70 ± 0.0 µM
Minimum microbicidal concentration, Xanthomonas campestris [4]: 5.38 ± 0.0 µM
Minimum microbicidal concentration, Staphylococcus aureus [5]: 10.77 ± 0.0 µM
Minimum microbicidal concentration, Bacillus subtilis [6]: 0.08 ± 0.0 µM
Minimum inhibitory concentration, Pseudomonas syringae pv. tabaci [7, 23]: 2.69 µM (≈ 0.94 µg/mL)
Minimum inhibitory concentration, Xanthomonas campestris ([8]; pv. citri, Mueller-Hinton, 28 °C, start 5.0 x 10^5 cells, 256-0.5 µM, mean ± SD of 3 biological repetitions (SD 0 not displayed), N/A = no antimicrobial activity observed): 1.35 µM (≈ 0.472 µg/mL)
Minimum inhibitory concentration, Escherichia coli [9]: 10.77 µM (≈ 3.76 µg/mL)
Minimum inhibitory concentration, Bacillus subtilis [10]: 0.08 µM (≈ 0.028 µg/mL)
Minimum inhibitory concentration, Erwinia carotovora [11, 23]: 1.35 µM (≈ 0.472 µg/mL)
Minimum inhibitory concentration, Staphylococcus aureus [12]: 5.38 µM (≈ 1.88 µg/mL)

C[C@@H]1[C@H](O)[C@@H](C)/C=C/C=C/C=C/C=C/C=C/C=C/C=C/[C@H](O[C@@H]2O[C@H](C)[C@@H](O)[C@H](N)[C@@H]2O)C[C@@H]2O[C@](O)(C[C@@H](O)C[C@@H](O)[C@H](O)CC[C@@H](O)C[C@@H](O)CC(=O)O[C@H]1C)C[C@H](O)[C@H]2C(=O)O [Amphotericin B]
MIC ([13]; Candida albicans, ATCC90028, 48 h, pH 7, read-out: Minimum inhibitory concentration, Candida albicans): 0.27 µM (≈ 0.25 µg/mL)
MIC ([14]; Cryptococcus neoformans, ATCC28957, 72 h, pH 7, read-out: Minimum inhibitory concentration, Cryptococcus neoformans): 0.13 µM (≈ 0.12 µg/mL)
MIC [15]: 2.16 µM (≈ 2 µg/mL)
MIC [16]: 0.54 µM (≈ 0.499 µg/mL)
MIC [17]: 0.54 µM (≈ 0.499 µg/mL)

CNC(C)C1CCC(N)C(OC2C(N)CC(N)C(OC3OCC(C)(O)C(NC)C3O)C2O)O1 (centres unmarked) [Gentamicin]
Minimum microbicidal concentration, Pseudomonas aeruginosa [18]: 0.52 ± 0.0 µM
Minimum microbicidal concentration, Escherichia coli [1]: 0.52 ± 0.0 µM
Minimum microbicidal concentration, Pseudomonas syringae pv. tabaci [2]: 0.52 ± 0.0 µM
Minimum microbicidal concentration, Erwinia carotovora [3]: 0.53 ± 0.0 µM
Minimum microbicidal concentration, Xanthomonas campestris [4]: 0.53 ± 0.0 µM
Minimum microbicidal concentration, Bacillus cereus [19]: 8.37 ± 0.0 µM
Minimum microbicidal concentration, Staphylococcus aureus [5]: 0.52 ± 0.0 µM
Minimum microbicidal concentration, Bacillus subtilis [6]: 0.033 ± 0.0 µM
MIC ([20]; Bacillus cereus, ATCC14579, 24 h, read-out: Minimum inhibitory concentration, Bacillus cereus): 8.37 µM (≈ 4 µg/mL)
MIC ([7]; Pseudomonas syringae, read-out: Minimum inhibitory concentration, Pseudomonas syringae pv. tabaci): 0.52 µM (≈ 0.248 µg/mL)
MIC ([8]; Xanthomonas campestris, read-out: Minimum inhibitory concentration, Xanthomonas campestris): 0.53 µM (≈ 0.253 µg/mL)
MIC ([9]; Escherichia coli, ATCC25922, 24 h, read-out: Minimum inhibitory concentration, Escherichia coli): 0.52 µM (≈ 0.248 µg/mL)
MIC ([10]; Bacillus subtilis, ATCC23857, 24 h, read-out: Minimum inhibitory concentration, Bacillus subtilis): 0.033 µM (≈ 0.0158 µg/mL)
MIC ([21]; Pseudomonas aeruginosa, ATCC27853, 24 h, read-out: Minimum inhibitory concentration, Pseudomonas aeruginosa): 0.13 µM (≈ 0.0621 µg/mL)
MIC ([11]; Pectobacterium carotovorum, read-out: Minimum inhibitory concentration, Erwinia carotovora): 0.53 µM (≈ 0.253 µg/mL)
MIC ([12]; Staphylococcus aureus, ATCC25923, 24 h, read-out: Minimum inhibitory concentration, Staphylococcus aureus): 0.26 µM (≈ 0.124 µg/mL)

GFKLGRKLVKVFKWII-NH2 [Gr01]
Hemolytic activity (% ± SD) at 1 µM [22]: 0.09 ± 0.01%
Hemolytic activity (% ± SD) at 2 µM [22]: 0.00 ± 0.00%
Hemolytic activity (% ± SD) at 4 µM [22]: 0.30 ± 0.15%
Hemolytic activity (% ± SD) at 8 µM [22]: 1.96 ± 0.89%
Hemolytic activity (% ± SD) at 16 µM [22]: 3.82 ± 1.28%
Hemolytic activity (% ± SD) at 32 µM [22]: 11.33 ± 1.66%
Hemolytic activity (% ± SD) at 64 µM [22]: 33.9 9 ± 5.46%
Hemolytic activity (% ± SD) at 128 µM [22]: 51.72 ± 7.33%
Hemolytic activity of human red blood cells (%) SC50 [22]: 64 µM
Concentration that induced 50% hemolysis ([22]; red cells of human): 64 µM
Minimum inhibitory concentration, Candida albicans ([13]; ATCC 90028, RPMI 1640 pH 7.0, 37 °C, 48 h, start 2.5 x 10^3 cells, 256-0.5 µM, mean ± SD of 3 biological repetitions (SD 0 not displayed), no cells seen by optical microscopy, N/A = no antimicrobial activity observed): 1.0 µM
Minimum inhibitory concentration, Cryptococcus neoformans ([14]; ATCC 28957, RPMI 1640 pH 7.0, 37 °C, 72 h, start 2.5 x 10^3 cells, 256-0.5 µM, mean ± SD of 3 biological repetitions (SD 0 not displayed), N/A = no antimicrobial activity observed): 1.0 µM
Minimum inhibitory concentration, Bacillus cereus ([20]; ATCC 14579, Mueller-Hinton, 37 °C, 24 h, start 5.0 x 10^5 cells, 256-0.5 µM, mean ± SD of 3 biological repetitions (SD 0 not displayed), N/A = no antimicrobial activity observed): 1.0 µM
Minimum inhibitory concentration, Escherichia coli [9]: 0.5 µM
Minimum inhibitory concentration, Bacillus subtilis [10]: 1.0 µM
Minimum inhibitory concentration, Pseudomonas aeruginosa ([21]; ATCC 27853, Mueller-Hinton, 37 °C, 24 h, start 5.0 x 10^5 cells, 256-0.5 µM, mean ± SD of 3 biological repetitions (SD 0 not displayed), N/A = no antimicrobial activity observed): 3.33 ± 1.15 µM
Minimum inhibitory concentration, Staphylococcus aureus [12]: 0.83 ± 0.29 µM
